Tested on: moderately differentiated intrahepatic cholangiocarcinoma
Experiment: Clinical case: treatment of a patient with metastatic intrahepatic cholangiocarcinoma, drugs chosen by Oncobox rating
Assay type: in vivo, human
Text: The patient was diagnosed in October 2015 with the following symptoms: moderate body weight loss, pain in right hypochondrium, loss of appetite and asthenia, with 70% Karnovsky index. […] The tumour was not surgically excised due to advanced stage, several intrahepatic masses and lung metastasis.
At first, total RNA was isolated from tumour sample and used to measure expression levels for 2,163 genes with CustomArray Inc. (USA) equipment using the microarray hybridization method. These 2,163 genes participate in major human signalling pathways associated with cancer, and also act as the molecular targets of anti-cancer medicinal products. Liver samples without pathological characteristics were taken from healthy donors and used as normal tissue controls. Using the Oncobox algorithm, the rating of target drugs was formed according to the BES values obtained (Table 2).

CNC(=O)c1cc(Oc2ccc(NC(=O)Nc3ccc(Cl)c(C(F)(F)F)c3)cc2)ccn1 [Sorafenib]
tumour status on MRI according to RECIST classification (Sorafenib from May 2016, MRI October 2016): stable disease | period till progression (Sorafenib from May 2016, progressing tumour on MRI January 2017): about 6 months | symptom change after treatment (after treatment with Sorafenib): pain elimination in right hypochondrium | adverse effects (patient on Sorafenib): reddening, edema, pains in palms of the hands and bottoms of the feet

Source: patent US11614434B2, “Genetic information analysis platform oncobox” (Obschestvo s ogranichennoi otvetstvennostyu “Oncobox”, priority 2018, dated 2023)
